A word on the IC50: it is the concentration at which inhibition is half-maximal. A word on the inhibition: it is how much of the control response was suppressed. Lower therefore signals a response near the control.

From patent publication US20190031665A1, “DERIVATIVES OF PYRROLOIMIDAZOLE OR ANALOGUES THEREOF WHICH ARE USEFUL FOR THE TREATMENT OF INTER ALIA CANCER” (EMCURE PHARMACEUTICALS LIMITED, priority 2016, published 2019) come the findings set out here.

Test [1] deals with T1, human indoleamine 2,3-dioxygenase 1 (hIDO1) (Homo sapiens, UniProt P14902).
T1 construct: His tag (N); purchased BPS Bioscience, San Diego, Calif., USA; host or cells: E. coli
T1 sequence (P14902 whole entry): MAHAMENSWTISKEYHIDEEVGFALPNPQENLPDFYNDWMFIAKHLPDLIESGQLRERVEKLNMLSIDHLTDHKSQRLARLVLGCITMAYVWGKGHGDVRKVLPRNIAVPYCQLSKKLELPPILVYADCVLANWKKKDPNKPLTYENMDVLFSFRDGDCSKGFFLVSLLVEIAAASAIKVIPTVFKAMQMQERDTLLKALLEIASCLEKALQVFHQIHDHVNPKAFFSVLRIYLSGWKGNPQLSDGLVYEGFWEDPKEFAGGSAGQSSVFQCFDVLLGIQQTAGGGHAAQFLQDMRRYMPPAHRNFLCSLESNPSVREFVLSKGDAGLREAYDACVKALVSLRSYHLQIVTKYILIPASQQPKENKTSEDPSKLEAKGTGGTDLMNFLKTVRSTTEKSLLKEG
The experiment in a line: In-vitro human indoleamine 2,3-dioxygenase 1 (IDO1) enzyme assay. The format is biochemical. The note with it: for IC50: hIDO1 enzyme; for inhibition at 1 µM: hIDO1 enzyme at 1.0 μM concentration; for inhibition at 10 µM: hIDO1 enzyme at 10.0 μM concentration. How it is done: In-vitro human indoleamine 2,3-dioxygenase 1 (IDO1) enzyme assay: In the in-vitro human indoleamine 2,3-dioxygenase 1 (hIDO1) enzyme assay for screening inhibitor compounds, hIDO1 with an N-terminal histidine tag expressed and purified from E. coli (BPS Bioscience, San Diego, Calif., USA) was used. All other materials were procured from Sigma-Aldrich, St. Louis, Mo., USA.
The assay method for monitoring the conversion of L-tryptophan to N-formylkynurenine by hlDO1 was carried out as follows. hlDO1 (50 ng) was incubated with tryptophan (80 μM) in the presence of ascorbic acid (10 mM), methylene blue (10 μM), catalase (100 μg/ml) and 0.01% Tween-20 in sodium phosphate buffer (50 mM; pH 6.5) at 37° C. for 60 min. The reaction was terminated with 200 mM piperidine (PIP) and further incubated at about 65° C. for about 20 minutes to convert N-formylkynurenine (NFK) to NFK-PIP. The reaction mixture was then incubated at room temperature for about 1 hour. The fluorescence intensity was read in a fluorescence microplate reader at an excitation wavelength of 400 nm and emission wavelength of 500 nm. Percent inhibition at each concentration of test compounds was determined by estimating the decrease in NFK-PIP. Data were analyzed using nonlinear regression to generate IC50 values using Graph Pad Prism® 6.

The target in test [2] is T2, human tryptophan 2,3-dioxygenase (hTDO) (Homo sapiens, UniProt P48775).
T2 construct: His tag (N); purchased BPS Bioscience, San Diego, Calif., USA; host or cells: E. coli
T2 sequence (P48775 whole entry): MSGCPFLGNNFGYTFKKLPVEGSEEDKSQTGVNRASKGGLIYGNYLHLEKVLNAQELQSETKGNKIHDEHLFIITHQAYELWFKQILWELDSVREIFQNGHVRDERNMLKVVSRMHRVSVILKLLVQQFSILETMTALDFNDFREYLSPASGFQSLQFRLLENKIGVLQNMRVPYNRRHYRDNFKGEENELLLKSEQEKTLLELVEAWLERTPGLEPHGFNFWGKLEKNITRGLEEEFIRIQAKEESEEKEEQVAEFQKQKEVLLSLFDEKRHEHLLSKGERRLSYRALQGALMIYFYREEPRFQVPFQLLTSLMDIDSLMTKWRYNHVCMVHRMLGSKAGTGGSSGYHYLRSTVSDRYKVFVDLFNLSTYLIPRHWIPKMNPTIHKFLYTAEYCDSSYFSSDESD
The experiment in a line: In-vitro human tryptophan 2,3-dioxygenase (TDO) enzyme assay. The format is biochemical. The note with it: for inhibition at 1 µM: hTDO enzyme at 1.0 μM concentration; for inhibition at 10 µM: hTDO enzyme at 10.0 μM concentration. How it is done:
In the in-vitro human tryptophan 2,3-dioxygenase (hTDO) enzyme assay for screening inhibitor compounds, hTDO with an N-terminal histidine tag expressed and purified from E. coli (BPS Bioscience, San Diego, Calif., USA) was used. All other materials were procured from Sigma-Aldrich, St. Louis, Mo., USA.
The assay monitoring method for the conversion of L-tryptophan to N-formylkynurenine by hTDO was carried out as follows. hTDO (125 ng) was incubated in the presence of 200 μM L-tryptophan, 100 mM sodium phosphate buffer (pH 7.0), 0.01% Tween-20 and 100 μM ascorbic acid at about 37° C. for about 60 minutes. The reaction was terminated with 200 mM piperidine (PIP) and further incubated at about 65° C. for about 20 minutes to convert N-formylkynurenine (NFK) to NFK-PIP. The reaction mixture was then incubated at room temperature for about 75 minutes. The fluorescence intensity was read in a fluorescence microplate reader at an excitation wavelength of 400 nm and emission wavelength of 500 nm. Percent inhibition at each concentration of test compounds was determined by estimating the decrease in NFK-PIP. Data were analyzed using nonlinear regression to generate IC50 values using Graph Pad Prism® 6.

Turning to `CC1=C(c2ccccc2)C(CC(=O)c2ccccc2)n2cncc21` (single isomer, unassigned) [Example 30], in test [1], the IC50 is > 500 nM, the inhibition at 1 µM was ≥ 50% and the inhibition at 10 µM is ≥ 50%. Besides, in test [2], the inhibition at 1 µM was ≥ 50% and the inhibition at 10 µM is ≥ 50%.

As for `CC1=C(c2ccccc2F)C(CC(=O)C2CCC(O)CC2)n2cncc21` (single isomer, unassigned) [Example 97], the inhibition at 1 µM in test [1] is ≤ 50%; in test [2], ≥ 50%.

`CC1=C(c2ccccc2F)C(CC(=O)C2CCC(O)CC2)n2cncc21` (single isomer, unassigned) [Example 98]: the inhibition at 10 µM in test [1] was ≥ 50%.

On to `CC1=C(c2ccccc2)C(CC(O)C2CCC(O)CC2)n2cncc21` (single isomer, unassigned) [Example 121], for which, in test [1], the inhibition at 1 µM was ≤ 50% and the inhibition at 10 µM is ≥ 50%. Also, the inhibition at 1 µM in test [2] was ≤ 50%.

Turning to `CC1=C(c2ccccc2)C(CC(O)C2CCC(O)CC2)n2cncc21` (single isomer, unassigned) [Example 122], the IC50 in test [1] was < 500 nM.

Regarding `CC1=C(c2ccccc2)C(CC(O)C2CCN(C(=O)c3ccccn3)CC2)n2cncc21` (single isomer, unassigned) [Example 160], in test [1], the inhibition at 1 µM is ≤ 50% and the inhibition at 10 µM was ≤ 50%. Also, the inhibition at 1 µM in test [2] was ≤ 50%.

As for `CC1=C(c2ccccc2)C(CC(O)C2CCN(C(=O)c3ccccn3)CC2)n2cncc21` (single isomer, unassigned) [Example 161], the IC50 in test [1] is > 500 nM.

With `CC1=C(c2ccccc2)C(CC(=O)c2ccc(-c3ccccc3)cc2)n2cncc21` (single isomer, unassigned; isomer-i) [Example 42, 1-([1,1′-biphenyl]-4-yl)-2-(7-methyl-6-phenyl-5H-pyrrolo[1,2-c]imidazol-5-yl)ethan-1-one, Isomer-I], in test [1], the IC50 is < 500 nM, the inhibition at 1 µM is ≥ 50% and the inhibition at 10 µM was ≥ 50%. Moreover, in test [2], the inhibition at 1 µM is ≥ 50%.

Take `COC(=O)c1ccc(C(=O)CC2C(c3ccccc3)=C(C)c3cncn32)cc1` (single isomer, unassigned; isomer-i) [Example 71, 4-[2-(7-Methyl-6-phenyl-5H-pyrrolo[1,2-c]imidazol-5-yl)-acetyl]-benzoic acid methyl ester, Isomer-I]: in test [1], the IC50 was < 500 nM, the inhibition at 1 µM was ≥ 50% and the inhibition at 10 µM was ≥ 50%. Further, in test [2], the inhibition at 1 µM was ≥ 50% and the inhibition at 10 µM was ≥ 50%.

As to `CC1=C(c2ccccc2)C(C[C@H](O)C2CCC(C(=O)OC(C)(C)C)CC2)n2cncc21` (stereo in doubt) [Example 185], in test [1], the IC50 is < 500 nM, the inhibition at 1 µM is ≥ 50% and the inhibition at 10 µM is ≥ 50%. In test [2], the inhibition at 1 µM is ≥ 50%.

Take `CCOC(=O)C1CCC([C@@H](O)CC2C(c3ccccc3)=C(C)c3cncn32)CC1` (stereo in doubt) [Example 189]: in test [1], the IC50 was < 500 nM, the inhibition at 1 µM is ≥ 50% and the inhibition at 10 µM was ≥ 50%. Besides, the inhibition at 1 µM in test [2] is ≥ 50%.

Consider `CCCCCCCCC(O)CC1C(c2ccccc2)=C(C)c2cncn21` (centres unmarked) [Compound 171, 1-(7-Methyl-6-phenyl-5H-pyrrolo[1,2-c]imidazol-5-yl)-decan-2-ol], for which, in test [1], the inhibition at 1 µM is ≥ 50% and the inhibition at 10 µM is ≥ 50%. In addition, in test [2], the inhibition at 10 µM was ≥ 50%.

In the case of `CC1=C(c2ccccc2)C(CC(=O)N2CCC(O)CC2)n2cncc21` (centres unmarked) [Compound 175, 1-(4-Hydroxypiperidin-1-yl)-2-(7-methyl-6-phenyl-5H-pyrrolo[1,2-c]imidazol-5-yl)ethan-1-one], in test [1], the inhibition at 1 µM is ≤ 50% and the inhibition at 10 µM is ≤ 50%. In addition, the inhibition at 1 µM in test [2] is ≤ 50%.

With `O=C(CC1C2=C(CCCC2)c2cncn21)c1ccccc1` (centres unmarked) [Example 1, 1-Phenyl-2-(6,7,8,9-tetrahydro-5H-imidazo[5,1-a]isoindol-5-yl)-ethanone], the inhibition at 10 µM in test [1] was ≤ 50%; in test [2], ≥ 50%.

With `OC(CC1C2=C(CCCC2)c2cncn21)c1ccccc1` (centres unmarked) [Example 2, 1-Phenyl-2-(6,7,8,9-tetrahydro-5H-imidazo[5,1-a]isoindol-5-yl)-ethanol], the inhibition at 10 µM in test [1] is ≤ 50%; in test [2], ≥ 50%.

With `O=C(CC1C2=C(CCCC2)c2cncn21)c1cccc(Cl)c1` (centres unmarked) [Example 3], the inhibition at 10 µM in test [1] was ≤ 50%; in test [2], ≥ 50%.

As to `OC(CC1C2=C(CCCC2)c2cncn21)c1cccc(Cl)c1` (centres unmarked) [Example 4], the inhibition at 10 µM was ≤ 50% in test [1] and ≥ 50% in test [2].

As for `Cc1ccc(S(=O)(=O)N2CCC3=C(C2)C(CC(=O)c2ccccc2)n2cncc23)cc1` (centres unmarked) [Example 5], in test [1], the inhibition at 10 µM was ≤ 50%.

`Cc1ccc(S(=O)(=O)N2CCC3=C(C2)C(CC(O)c2ccccc2)n2cncc23)cc1` (centres unmarked) [Example 6]: the inhibition at 10 µM in test [1] is ≤ 50%.

For the molecule `O=C(CC1C2=C(CCCC2)c2cncn21)c1cccc(OCc2ccccc2)c1` (centres unmarked) [Example 7], the inhibition at 10 µM in test [1] is ≤ 50%; in test [2] it was ≥ 50%.

Turning to `OC(CC1C2=C(CCCC2)c2cncn21)c1cccc(OCc2ccccc2)c1` (centres unmarked) [Example 8], the inhibition at 10 µM was ≤ 50% in test [1] and ≥ 50% in test [2].

With `O=C(CC1C2=C(CCCC2)c2cncn21)c1cc(F)ccc1F` (centres unmarked) [Example 9], the inhibition at 10 µM in test [1] was ≤ 50%; in test [2], ≥ 50%.

Turning to `OC(CC1C2=C(CCCC2)c2cncn21)c1cc(F)ccc1F` (centres unmarked) [Example 10], the inhibition at 10 µM in test [1] was ≤ 50%; in test [2], ≥ 50%.

As to `CC1=C(c2ccccc2)C(CC(=O)c2ccccc2)n2cncc21` (centres unmarked) [Example 11, 2-(7-Methyl-6-phenyl-5H-pyrrolo[1,2-c]imidazol-5-yl)-1-phenyl-ethanone], in test [1], the 50% inhibitory concentration (IC50) was > 500 nM and the inhibition at 10 µM is ≥ 50%. Further, the inhibition at 10 µM in test [2] was ≥ 50%.

As for `CC1=C(c2ccccc2)C(CC(O)c2ccccc2)n2cncc21` (centres unmarked) [Example 12, 2-(7-Methyl-6-phenyl-5H-pyrrolo[1,2-c]imidazol-5-yl)-1-phenyl-ethanol], in test [1], the IC50 was > 500 nM and the inhibition at 10 µM was ≥ 50%. Moreover, the inhibition at 10 µM in test [2] is ≥ 50%.

Take `O=C(CC1C=C(c2ccccc2)c2cncn21)c1ccccc1` (centres unmarked) [Example 13]: the inhibition at 10 µM in test [1] was ≤ 50%.

Turning to `OC(CC1C=C(c2ccccc2)c2cncn21)c1ccccc1` (centres unmarked) [Example 14], the inhibition at 10 µM in test [1] was ≤ 50%.

Take `CC1=C(c2cccc(F)c2)C(CC(=O)c2ccccc2)n2cncc21` (centres unmarked) [Example 15, 2-[6-(3-Fluoro-phenyl)-7-methyl-5H-pyrrolo[1,2-c]imidazol-5-yl]-1-phenyl-ethanone]: in test [1], the inhibition at 1 µM is ≤ 50% and the inhibition at 10 µM was ≥ 50%. The inhibition at 10 µM in test [2] is ≥ 50%.

In the case of `CC1=C(c2cccc(F)c2)C(CC(O)c2ccccc2)n2cncc21` (centres unmarked) [Example 16, 2-[6-(3-Fluoro-phenyl)-7-methyl-5H-pyrrolo[1,2-c]imidazol-5-yl]-1-phenyl-ethanol], in test [1], the inhibition at 1 µM was ≤ 50% and the inhibition at 10 µM is ≥ 50%. The inhibition at 10 µM in test [2] is ≥ 50%.

In the case of `CC1=C(c2ccccc2)c2cncn2C1CC(=O)c1ccccc1` (centres unmarked) [Example 21], in test [1], the inhibition at 1 µM was ≤ 50% and the inhibition at 10 µM was ≤ 50%.

As to `CC1=C(c2ccccc2)C(CC(O)C2CCC(O)CC2)n2cncc21` (centres unmarked) [Example 111], in test [1], the IC50 is > 500 nM and the inhibition at 10 µM was ≥ 50%.

Regarding `CCCNC(=O)CC1C(c2ccccc2)=C(C)c2cncn21` (centres unmarked) [Example 172, 2-(7-Methyl-6-phenyl-5H-pyrrolo[1,2-c]imidazol-5-yl)-N-propylacetamide], in test [1], the inhibition at 1 µM was ≤ 50% and the inhibition at 10 µM was ≤ 50%.
